According to paper PMC10718076, “1,2-Disubstituted bicyclo[2.1.1]hexanes as saturated bioisosteres of ortho-substituted benzene” (Chemical Science, 2023):

Experiment: physchem
Settings: pH 7.4, LogD, pH 7.4
Procedure: Determination of Distribution Coefficient (LogD, pH 7.4)
coefficient (or LogD) is a logarithm of the ratio of drug concentrations in two immiscible solvents,
typically pH-buffered water and n-octanol. It is a measure of hydrophobic/hydrophilic properties of
a given molecule. The partition of test compounds is determined using a shake-flask method, which
involves mixing of a certain amount of the solute of interest in defined volumes of n-octanol and an
aqueous buffer of choice followed by equilibration of the mixture by incubation with efficient
mixing. Then, the distribution of the compounds in each solvent was controlled using LC-MS/MS.
Phosphate buffered saline, tablet (Sigma-Aldrich, USA; Cat # P4417)
Acetic acid (Enamine, Ukraine)
1.1 mL microtubes in microracks, pipettor tips (Thermo Scientific, USA).
National Scientific MicroTube™ Rack (Thermo Fisher Scientific, USA; Cat # TN094612R)
Gradient HPLC system (Shimadzu, Japan)
Triple quadrapole mass-detector API 3000 with TurboIonSpray Ion Source (AB Sciex, Canada)
MTR22 Multi Mix Rotator (UNICO, USA)
Laboratory Centrifuge, Sigma 4-15C, Qiagen (SIGMA GmbH, Germany)
Water purification system Millipore Milli-Q Gradient A10 (Millipore, France)
All measurements were performed using a Shimadzu Prominence HPLC system including a
vacuum degasser, gradient pumps, a reverse phase column, a column oven and an autosampler.
Mass spectrometric analysis was performed using an API 4000 QTRAP mass spectrometer from
Applied Biosystems/MDS Sciex (AB Sciex) with Turbo V ion source and TurboIonspray
interface. The TurboIonSpray ion source was used in both positive and negative ion modes.
Acquisition and analysis of the data were performed using Analyst 1.6.3 software.
Incubations were carried out in Eppendorf-type polypropylene microtubes in triplicates. A 2.5 μL
aliquot of 20 mM DMSO stock of a test compound was added into the previously mutually
saturated mixture containing 500 μL of PBS (pH 7.4) and 500 μL of octanol. The solution was
allowed to mix in a rotator for 1 hour at 30 rpm. Phase separation was assured by centrifugation for
2 min at 6000 rpm. The octanol phase was diluted 100-fold with 40% acetonitrile, and the aqueous
phase (PBS buffer) was diluted 10-fold with 40% acetonitrile. The samples (both phases) were
analyzed using an HPLC system coupled with a tandem mass spectrometer.
Calculations of the partition ratios were carried out using the equation below.
where: – peak area of the analyte in octanol phase
– peak area of the analyte in PBS buffer
– dilution coefficient for octanol phase dp – dilution coefficient for aqueous phase

SMILES | logD at 1 h
Cn1cc(C(=O)NC2CC3CC2(c2cc(F)c(F)c(F)c2)C3)c(C(F)F)n1 (stereo not shown) [Compound 30] | 3.61
Cn1cc(C(=O)Nc2ccc(F)cc2-c2ccc(Cl)c(Cl)c2)c(C(F)F)n1 [Bixafen, bixafen] | 4.09
O=C(NC1CC2CC1(c1ccc(Cl)cc1)C2)c1cccnc1Cl (stereo not shown) [Compound 28] | 3.58
Cn1cc(C(=O)NC2CC3CC2(c2ccc(Cl)c(Cl)c2)C3)c(C(F)F)n1 (stereo not shown) [Compound 29] | 4.1
